Data taken from PubChem BioAssay AID1996.
In brackets after ≈: the same amount, converted by molar mass.

Conditions: buffer; pH 7.4; 200.0 µM
`CC1CCN(Cc2cc(=O)oc3ccc4ccccc4c23)CC1` gave a solubility kinetic of 2.3 µg/mL (≈ 7.48 µM). For `Cc1ccc(CSCC(=O)Nc2ccccc2F)cc1`, the solubility kinetic was 27.6 µg/mL (≈ 95.4 µM). With `O=C(CN(Cc1ccco1)C(=O)c1ccc(F)cc1)Nc1ccccc1Br` the solubility kinetic was > 64.7 µg/mL. In the case of `CN/C=C(/Cl)P(=O)(OC(C)C)OC(C)C`, the solubility kinetic is reported as > 38.4 µg/mL. `CC(=O)Nc1ccc(OS(=O)(=O)c2ccc(Cl)cc2)cc1` gave a solubility kinetic of 38.6 µg/mL (≈ 118 µM). `COc1ccc(NC(=O)C2CCCC2)cc1` gave a solubility kinetic of 30.3 µg/mL (≈ 138 µM). Work on `CCOC(=O)Cc1csc(NC(=O)c2cc3ccccc3o2)n1` yielded a solubility kinetic of 10.4 µg/mL (≈ 31.5 µM). `O=C1C2C3c4ccccc4C(c4ccccc43)[C@@H]2C(=O)N1c1ccccn1` (some centres undefined) showed a solubility kinetic of 2.9 µg/mL (≈ 8.23 µM). With `O=c1c2ccccc2nc(-c2ccccc2Cl)n1-c1cccc(O)c1` the solubility kinetic was > 52.3 µg/mL. In the case of `CCOc1ccc(NC(=O)c2ccccc2SC)cc1`, the solubility kinetic is reported as 2.4 µg/mL (≈ 8.35 µM). For `CCOc1ccc2nc(Cl)sc2c1`, the solubility kinetic was < 0.5 µg/mL. For `Cc1ccc2nc(-c3ccncc3)cc(C(=O)NCc3ccccc3F)c2c1`, the solubility kinetic was 2.5 µg/mL (≈ 6.73 µM). Compound `CC(OCC(O)CN1CCCCC1CCO)c1ccc(Cl)cc1` (centres undefined) has a solubility kinetic of 42.2 µg/mL (≈ 123 µM). In the case of `COc1ccc(NC(=S)Nc2cccc(C(C)=O)c2)cc1OC`, the solubility kinetic is reported as > 49.6 µg/mL. Compound `Cc1ccc(C(C)NC(=S)NC2CCCCC2)cc1C` (centres undefined) has a solubility kinetic of 7.8 µg/mL (≈ 26.9 µM). With `Cc1ccc(Nc2ccc([N+](=O)[O-])cn2)cc1Cl` the solubility kinetic was < 0.2 µg/mL. In the case of `O=C(NCCN1CCOCC1)C(=O)c1c[nH]c2ccccc12`, the solubility kinetic is reported as > 45.2 µg/mL. In the case of `CC(=O)N1CCN(Cc2nc3ccc(Cl)cc3n2CCO)CC1`, the solubility kinetic is reported as > 50.5 µg/mL. `CC1(C)CC(=O)C(C2=NC3(CCCCCC3)Cc3ccccc32)=C(O)C1` gave a solubility kinetic of 49.8 µg/mL (≈ 142 µM). With `CC(=O)c1cn(-c2ccc([N+](=O)[O-])cc2)c(=O)n(C)c1=O` the solubility kinetic was > 43.4 µg/mL. With `CCOc1ccc(NC(=O)NC2CC(=O)N(c3ccc(OC)cc3)C2)cc1` (centres undefined) the solubility kinetic was 7.7 µg/mL (≈ 20.8 µM). `CCCCOc1ccc(C(=O)OCC(=O)N2CCOCC2)cc1` showed a solubility kinetic of 29.9 µg/mL (≈ 93 µM). For `Cc1ccc(CNS(=O)(=O)c2ccc(F)c(F)c2)n1C`, the solubility kinetic was > 45 µg/mL. For `Cc1cc(Cl)c2ccc3ccccc3c2n1`, the solubility kinetic was < 0.5 µg/mL. `CCC(C(=O)Nc1ccc(N2CCOCC2)c(S(=O)(=O)Nc2ccccc2OC)c1)c1ccccc1` (centres undefined) showed a solubility kinetic of 7.4 µg/mL (≈ 14.5 µM). With `N#Cc1cc(Sc2ccccn2)c([N+](=O)[O-])cc1C#N` the solubility kinetic was > 42.3 µg/mL. With `CS(=O)(=O)c1ccc(C(=O)NC2CCCc3ccccc32)cc1` (centres undefined) the solubility kinetic was 35.2 µg/mL (≈ 107 µM). Compound `O=C(NCc1cccs1)C1CC(=O)N(c2ccc(Cl)cc2)C1` (centres undefined) has a solubility kinetic of 11.9 µg/mL (≈ 35.5 µM). For `Cc1cccc(CC(=O)c2c[nH]c3ccccc23)c1`, the solubility kinetic was 0.9 µg/mL (≈ 3.61 µM). `C(=C\c1ccccc1)/CN1CCN(Cc2ccc3c(c2)OCO3)CC1` gave a solubility kinetic of 43 µg/mL (≈ 128 µM). `CC(C)NC(=O)N(Cc1ccccc1)Cc1cccs1` showed a solubility kinetic of 41.8 µg/mL (≈ 145 µM). In the case of `CCCSC1=C(C#N)C2(CCCCC2)C(C#N)=C(N)N1`, the solubility kinetic is reported as > 43.3 µg/mL. In the case of `O=C(O)Cc1c(-c2ccccc2)c2cc(Cl)ccc2[nH]c1=O`, the solubility kinetic is reported as > 47.1 µg/mL. Work on `Cc1ccc2[nH]c3c(Cl)ncnc3c2c1` yielded a solubility kinetic of 13.3 µg/mL (≈ 61.1 µM). With `CC(=O)c1ccc(Sc2ccccc2)c([N+](=O)[O-])c1` the solubility kinetic was 3.1 µg/mL (≈ 11.3 µM). With `CSc1cc(CS(=O)(=O)c2ccccc2)nc(-c2ccccc2)n1` the solubility kinetic was < 0.4 µg/mL. With `Cc1ccccc1N1CC(C(=O)NC2CCCC2)CC1=O` (centres undefined) the solubility kinetic was > 43 µg/mL. With `O=C(NC1CC2CCCC(C1)N2C(=O)Nc1ccccc1Cl)C1CC1` (centres undefined) the solubility kinetic was > 54.3 µg/mL. Work on `CCc1ccccc1NC(=S)N(CCN(C)C)Cc1cccs1` yielded a solubility kinetic of 45.6 µg/mL (≈ 131 µM). For `CC(C)C(NCC(=O)Nc1ccccc1C(=O)NC1CC1)c1ccccc1` (centres undefined), the solubility kinetic was > 54.8 µg/mL. For `O=C(CSc1ncccn1)Nc1cccc(S(=O)(=O)N2CCOCC2)c1`, the solubility kinetic was > 59.2 µg/mL. With `COc1ccc(S(=O)(=O)N2CCCCCC2)cc1C(=O)OCC(=O)NC1CCS(=O)(=O)C1` (centres undefined) the solubility kinetic was > 73.3 µg/mL. With `COc1ccccc1CNc1ccc2c(c1)CCC2` the solubility kinetic was 7.4 µg/mL (≈ 29.2 µM). In the case of `COc1ccc([N+](=O)[O-])cc1NC(=O)c1cccnc1`, the solubility kinetic is reported as 28.8 µg/mL (≈ 105 µM). `CC(C)CN1CCN(Cc2ccc(C(F)(F)F)cc2)CC1CCO` (centres undefined) gave a solubility kinetic of 45.5 µg/mL (≈ 132 µM). `Cc1cccc(C)c1NC(=O)COC(=O)c1ccccc1O` showed a solubility kinetic of 3 µg/mL (≈ 10 µM). In the case of `O=C(CC1CCC1)NC(c1ccccc1)c1ccccc1`, the solubility kinetic is reported as 6.5 µg/mL (≈ 23.3 µM). In the case of `O=C(CNS(=O)(=O)c1ccc(F)c(Cl)c1)NCCc1ccccc1`, the solubility kinetic is reported as 5.1 µg/mL (≈ 13.8 µM). With `Cc1ccc(S(=O)(=O)N2CCN(CC(=O)N3CCCC3)CC2)c(C)c1` the solubility kinetic was > 54.8 µg/mL. For `N#C/C(=C(O)\C=C\c1ccccc1)c1nc2ccccc2[nH]1`, the solubility kinetic was < 0.2 µg/mL. For `CCn1c(SCC(=O)Nc2nccc(C)n2)nc2ccccc21`, the solubility kinetic was > 49.1 µg/mL. With `CC(C(O)c1cc(=O)c(OCc2ccccc2)co1)[N+](=O)[O-]` (centres undefined) the solubility kinetic was 33.1 µg/mL (≈ 108 µM). In the case of `CN(C(=O)COC(=O)c1ccc2ccccc2n1)C1CCCCC1`, the solubility kinetic is reported as > 49 µg/mL. For `CC(=O)Nc1ccc(C(=O)COC(=O)C2CC2C)c(F)c1` (centres undefined), the solubility kinetic was > 44 µg/mL. Compound `O=C(Oc1cccc(Cl)c1)N1CCOCC1` has a solubility kinetic of 34.8 µg/mL (≈ 144 µM). With `CN(C)C(=O)c1ccc(Cl)cc1[N+](=O)[O-]` the solubility kinetic was > 34.3 µg/mL. With `CCOc1cc(/C=C2/C(=O)ON=C2C)ccc1O` the solubility kinetic was 27.2 µg/mL (≈ 110 µM). In the case of `CCOC(=O)COc1nc(-c2ccco2)cc(-c2ccco2)c1C#N`, the solubility kinetic is reported as 2.8 µg/mL (≈ 8.28 µM). Compound `COc1cc2c(cc1OC)CN(c1ncccc1[N+](=O)[O-])CC2` has a solubility kinetic of 5.6 µg/mL (≈ 17.8 µM).
